Data set [1] in a line: Intrinsic clearance in liver microsomes. The note with it: 37 °C, NADPH, 45 min, mean of 5. The data set is classed as in vitro ADME. On the procedure: The reaction is terminated by the addition of methanol. Following centrifugation, the supernatant is analyzed on the LC-MS/MS. […] The data is the mean on 5 separate experiments.
The ln peak area ratio (compound peak area/internal standard peak area) is plotted against time and the gradient of the line determined.
(see Supplementary data file for details).
For orientation: Microsomes from liver hold many membrane-bound enzymes, among them those of drug oxidation.

The next data set can be described thus: PK studies in rats. The settings on record: for rat pK AUC po: 10 mg/kg po, 8% Ethanol/92% PEG-400, n = 4; for rat pK Cl: iv 0.5 mg/kg; for rat pK Cl / bioavailability: n = 4; for bioavailability: male, Sprague-Dawley, rat, 10 mg/kg po vs 0.5 mg/kg iv, read-out: rat pK F%. The data set is classed as in vivo, Sprague-Dawley rats. Here is the method: The Test Items were orally administered at a dose of 10 mg/kg and a dosing volume of 10 mL/kg. […] The Test Items were intravenously administered at a dose of 0.5 mg/kg and a dosing volume of 2 mL/kg. […] Whole blood concentrations of the Test Items were measured using LC-MS/MS and selected pharmacokinetic parameters calculated using Pharsight WinNonLin software. For furthers details see Supplementary data file.

The nature of data set [2]: Log D pH 7.4, octanol/buffer shake flask method.
Description: Briefly, octanol (pre-saturated with buffer) is added to the test compound and sonicated. Buffer at pH 7.4 (presaturated with octanol) is then added to the octanol. […] The system is mixed to allow distribution of the compound between the two phases.
Log D = Log (Coct / Caq ). Where: Coct = Concentration in octanol sample (corrected for dilution) and Caq = Concentration in aqueous sample (corrected for dilution)
For the next data set, the target named is T1, mouse RAR alpha receptor (Mus musculus, UniProt P11416).
T1 sequence (P11416 183-417 limits assumed): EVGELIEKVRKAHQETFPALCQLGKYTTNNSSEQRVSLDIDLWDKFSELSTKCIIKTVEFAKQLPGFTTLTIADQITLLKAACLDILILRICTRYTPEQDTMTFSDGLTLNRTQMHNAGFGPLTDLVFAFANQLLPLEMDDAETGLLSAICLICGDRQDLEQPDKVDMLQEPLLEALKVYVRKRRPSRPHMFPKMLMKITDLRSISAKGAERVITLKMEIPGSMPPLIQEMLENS
The note with it: relative to the amplitude of the normalizing ATRA output.

In the next data set the target is T2, mouse RAR gamma receptor (Mus musculus, UniProt P18911).
T2 sequence (P18911 185-419 limits assumed): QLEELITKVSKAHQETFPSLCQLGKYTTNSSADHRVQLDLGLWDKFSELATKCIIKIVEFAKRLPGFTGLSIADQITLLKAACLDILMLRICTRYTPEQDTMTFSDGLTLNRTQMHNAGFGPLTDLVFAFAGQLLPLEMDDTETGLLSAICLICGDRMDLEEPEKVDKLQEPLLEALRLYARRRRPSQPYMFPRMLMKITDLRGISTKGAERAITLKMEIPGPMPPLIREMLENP
The note with it: mouse; ratio of relative EC50s RARγ/RARα.

In another data set the target is T3, mouse RAR beta receptor (Mus musculus, UniProt P22605).
T3 sequence (P22605 210-444 limits assumed): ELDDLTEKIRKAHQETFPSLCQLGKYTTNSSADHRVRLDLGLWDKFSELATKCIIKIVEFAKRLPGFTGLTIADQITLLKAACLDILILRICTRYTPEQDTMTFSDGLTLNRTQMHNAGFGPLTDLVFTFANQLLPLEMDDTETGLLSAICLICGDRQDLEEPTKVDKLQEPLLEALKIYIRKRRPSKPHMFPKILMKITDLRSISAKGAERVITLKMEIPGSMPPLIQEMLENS
The note with it: ratio of relative EC50s RARβ/RARα.

Where [3] appears, read: liver microsomes, human microsomes.
The mark [4] stands for this setting: liver microsomes, mouse microsomes.

16 molecules from publication PMC5823845 (Bioorganic & Medicinal Chemistry, 2018) can be followed below.

Structures are written as SMILES. Read-outs that look alike come from different tables or passages of the source.

For the molecule `O=C(O)c1ccc(NC(=O)c2cc(Cl)c(OC3CCCC3)c(Cl)c2)cc1` [Compound 15, 4-(3,5-Dichloro-4-(cyclopentyloxy)benzamido)benzoic acid], the microsomal CLint in data set [1] (setting [3]) stood at 26 µL/min/mg. The same molecule returned a microsomal CLint in data set [1] (setting [4]) of 83 µL/min/mg. In the data set “PK studies in rats”, the “rat pK AUC po” value was 1674 ng·min mL^−1 and the “rat pK Cl” value stood at 2 mL/kg/min. Also, the bioavailability in “PK studies in rats” (whole blood) turned out to be 0.3%. Further, the pH-dependent lipophilicity (logD) in data set [2] turned out to be 2.8.

Take `CCOc1c(Cl)cc(C(=O)Nc2ccc(C(=O)O)c(C)c2)cc1Cl` [Compound 18, 4-(3,5-Dichloro-4-ethoxybenzamido)-2-methylbenzoic acid]: the microsomal CLint in data set [1] (setting [3]) was 14 µL/min/mg. For the same molecule, the microsomal CLint in data set [1] (setting [4]) came out at 38 µL/min/mg. For the same molecule, in the data set “PK studies in rats”, the “rat pK AUC po” value was 74,396 ng·min mL^−1 and the “rat pK Cl” value is given as 1.6 mL/kg/min. Further, in the data set “PK studies in rats” (whole blood), the bioavailability came to 12%. Also, the logD in data set [2] was 1.7.

On to `CCOc1c(OC(C)C)cc(C(=O)Nc2ccc(C(=O)O)cc2)cc1OC(C)C` [Compound 31, 4-(4-Ethoxy-3,5-diisopropoxybenzamido)benzoic acid], for which the microsomal CLint in data set [1] (human microsomes) is 4 µL/min/mg; in data set [1] (mouse microsomes) it was 8 µL/min/mg. Besides, on mouse RAR alpha receptor, the “RARα agonist type (partial / full agonist)” value is given as “partial RARα agonist”. Further, the “rat pK Cl” value in the data set “PK studies in rats” is on record as 1 mL/kg/min. In addition, in “PK studies in rats” (in vivo), the bioavailability came to 81%. Also, in data set [2], the logD amounted to 1.6.

Turning to `CCOc1c(OC2CCCC2)cc(C(=O)Nc2ccc(C(=O)O)cc2)cc1OC1CCCC1` [Compound 32], the γ/α ratio on mouse RAR gamma receptor was found to be 19. For the same molecule, the β/α ratio at mouse RAR beta receptor was 145. For the same molecule, the “RARα agonist type (partial / full agonist)” value on mouse RAR alpha receptor is “partial agonist activity”.

In the case of `CC(C)Oc1cc(C(=O)Nc2ccc(C(=O)O)cc2)cc(OC(C)C)c1OC(C)C` [Compound 33], the γ/α ratio on mouse RAR gamma receptor is reported as 8. Also, the β/α ratio on mouse RAR beta receptor was 96. In addition, on mouse RAR alpha receptor, the “RARα agonist type (partial / full agonist)” value is “partial agonist activity”.

As for `CCOc1cc(C(=O)Nc2ccc(C(=O)O)cc2)cc(OC(C)C)c1OCC` [Compound 34], on mouse RAR gamma receptor, the γ/α ratio is 34. In addition, on mouse RAR beta receptor, the β/α ratio is reported as 84. Further, on mouse RAR alpha receptor, the “RARα agonist type (partial / full agonist)” value was “full RARα agonist”.

On to `CC(C)Oc1cc(C(=O)Nc2ccc(C(=O)O)cc2)cc(Cl)c1OC(C)C` [Compound 39, 4-(3-chloro-4,5-diisopropoxybenzamido)benzoic acid], for which, in data set [1] (setting [4]), the microsomal CLint is 31 µL/min/mg. The “RARα agonist type (partial / full agonist)” value at mouse RAR alpha receptor is “full agonist”. Moreover, in the data set “PK studies in rats”, the “rat pK AUC po” value was 43,569 ng·min mL^−1 and the “rat pK Cl” value is 10 mL/kg/min. In “PK studies in rats” (whole blood), the bioavailability came to 39%. Besides, in data set [2], the logD came out at 2.6.

For `CC(C)Oc1cc(C(=O)Nc2ccc(C(=O)O)c(F)c2)cc(Cl)c1OC(C)C` [Compound 43], the figures for the microsomal CLint in data set [1] (setting [3]) and in data set [1] (setting [4]) were 6.9 µL/min/mg and 18.8 µL/min/mg, respectively. The γ/α ratio on mouse RAR gamma receptor turned out to be 300. The β/α ratio on mouse RAR beta receptor is reported as 34. In data set [2], the logD turned out to be 2.

In data set [1] (setting [3]), `Cc1cc(NC(=O)c2cc(Cl)c(OC(C)C)c(OC(C)C)c2)ccc1C(=O)O` [Compound 44] came in with a microsomal CLint of 15 µL/min/mg. The same molecule yielded a microsomal CLint in data set [1] (setting [4]) of 26.2 µL/min/mg. Besides, the γ/α ratio at mouse RAR gamma receptor worked out at 2947. Moreover, the β/α ratio on mouse RAR beta receptor is on record as 45. In the data set “PK studies in rats”, the “rat pK AUC po” value is 77,670 ng·min mL^−1 and the “rat pK Cl” value was determined as 5.4 mL/kg/min. In addition, the bioavailability in the data set “PK studies in rats” (whole blood) worked out at 66%. For the same molecule, the logD in data set [2] turned out to be 2.3.

Turning to `Cc1cc(NC(=O)c2cc(Cl)c(OC(C)(C)C)c(OC(C)(C)C)c2)ccc1C(=O)O` [Compound 45], the microsomal CLint stood at 28.7 µL/min/mg in data set [1] (human microsomes) and 36.2 µL/min/mg in data set [1] (mouse microsomes). The γ/α ratio on mouse RAR gamma receptor is 128. For the same molecule, the logD in data set [2] came out at 2.9.

As for `CCOc1c(Cl)cc(C(=O)Nc2ccc(C(=O)O)cc2)cc1OC(C)C` [Compound 49, 4-(3-Chloro-4-ethoxy-5-isopropoxybenzamido)benzoic acid], the microsomal CLint in data set [1] (setting [3]) came to 11 µL/min/mg; in data set [1] (setting [4]), 41 µL/min/mg. For the same molecule, the “RARα agonist type (partial / full agonist)” value at mouse RAR alpha receptor is “partial agonist”. For the same molecule, in data set [2], the logD came to 1.7.

With `COc1c(Cl)cc(C(=O)Nc2ccc(C(=O)O)cc2)cc1OC(C)C` [Compound 51], the microsomal CLint in data set [1] (setting [3]) turned out to be 12 µL/min/mg; in data set [1] (setting [4]) it was 9 µL/min/mg. The “RARα agonist type (partial / full agonist)” value at mouse RAR alpha receptor is listed as “full agonist”. Moreover, in the data set “PK studies in rats”, the “rat pK AUC po” value was 50,940 ng·min mL^−1. Besides, in “PK studies in rats”, the “rat pK Cl” value worked out at 3 mL/kg/min. The bioavailability in “PK studies in rats” (whole blood) came out at 13%. For the same molecule, in data set [2], the logD was determined as 1.

Consider `COc1c(Cl)cc(C(=O)Nc2ccc(C(=O)O)c(F)c2)cc1OC(C)C` [Compound 53], for which the microsomal CLint in data set [1] (setting [3]) worked out at 0.3 µL/min/mg; in data set [1] (setting [4]), 11 µL/min/mg. Further, at mouse RAR gamma receptor, the γ/α ratio is reported as 17,600. For the same molecule, the β/α ratio at mouse RAR beta receptor is 609. The “rat pK AUC po” value in “PK studies in rats” is listed as 10,871 ng·min mL^−1. Further, in “PK studies in rats”, the “rat pK Cl” value is on record as 15 mL/kg/min. Further, the bioavailability in “PK studies in rats” (whole blood) stood at 15%. In data set [2], this molecule showed a logD of 1.

As for `CCOc1c(Cl)cc(C(=O)Nc2ccc(C(=O)O)c(F)c2)cc1OC(C)C` [Compound 54], the microsomal CLint in data set [1] (setting [3]) came to 3.3 µL/min/mg; in data set [1] (setting [4]), 17.9 µL/min/mg. Also, the γ/α ratio at mouse RAR gamma receptor is listed as 6169. For the same molecule, the β/α ratio on mouse RAR beta receptor amounted to 487. For the same molecule, the “rat pK AUC po” value in the data set “PK studies in rats” is 15,376 ng·min mL^−1. For the same molecule, in the data set “PK studies in rats”, the “rat pK Cl” value amounted to 12 mL/kg/min. Besides, the bioavailability in the data set “PK studies in rats” (whole blood) came out at 12%. This molecule displayed a logD in data set [2] of 1.4.

As to `COc1c(Cl)cc(C(=O)Nc2ccc(C(=O)O)c(C)c2)cc1OC(C)C` [Compound 55], the microsomal CLint was 1.5 µL/min/mg in data set [1] (setting [3]) and 10.6 µL/min/mg in data set [1] (setting [4]). The γ/α ratio at mouse RAR gamma receptor worked out at 509. Besides, the β/α ratio on mouse RAR beta receptor was determined as 241. On mouse RAR alpha receptor, the “RARα agonist type (partial / full agonist)” value is on record as “partial RARα agonist activity”. This molecule also came in with a logD in data set [2] of 1.3.

In the case of `CCOc1cc(C(=O)Nc2ccc(C(=O)O)c(C)c2)cc(Cl)c1OC(C)C` [Compound 57], the results for the microsomal CLint in data set [1] (setting [3]) and in data set [1] (setting [4]) were 8.7 µL/min/mg and 25.7 µL/min/mg, respectively. Further, on mouse RAR gamma receptor, the γ/α ratio is on record as 1675. The β/α ratio at mouse RAR beta receptor is 286. Also, the logD in data set [2] was 1.9.

In general, microsomal CLint refers to a measure of how fast metabolising enzymes remove a compound, apart from limits set by blood flow. High values mean faster metabolism, low ones greater metabolic stability. In general, logD refers to the decadic logarithm of the distribution of all forms, ionised or not, between an organic phase and buffer at a given pH. A higher logD goes with higher lipophilicity.
